Patent publication US9376462B2, “Process for preparing delta-7,9(11) steroids from Ganoderma lucidum and analogs thereof” (Indiana University Research and Technology Corporation, priority 2010, dated 2016)
Where two headings read alike, the source gives them in different places.

Assays:
[1] = molecular target: recombinant HIV-1 protease (Human immunodeficiency virus type 1 group M subtype B, UniProt P04585); conditions: cited from earlier work
MCF-7 cells = test: Cell proliferation assay (tetrazolium salt/MTT method), MCF-7; assay type: cell-based; conditions: Homo sapiens, read-out: IC50, inhibition of cell proliferation
Protocol: (§1) Cell culture: The human breast cancer cell lines MCF-7 and MDA-MB-231, obtained from ATCC (Manassas, Va.), were cultivated in Dulbecco's modified Eagle's medium (DMEM) containing penicillin (50 U/ml), streptomycin (50 U/ml), and 10% fetal bovine serum (FBS). Media and supplements were from Invitrogen (Grand Island, N.Y.).
(§2) Cell proliferation assay: Ganodermanontriol, 13, 14, and 15 (isomers) were dissolved in DMSO (Sigma; St. Louis, Mo.) at a concentration of 10 mM and stored at 4° C. Dulbecco's phosphate buffered saline (DPBS) was purchased from Cambrex Bio Science Walkersville, Inc. (Walkersville, Md.). Cell proliferation was determined by the tetrazolium salt method (MTT method), according to the manufacturer's instructions (Promega, Madison, Wis.). Briefly, MCF-7 and MDA-MB-231 cells (2.5×10^3/well) were cultured in a 96-well plate and treated with ganodermanontriol, 13, 14 and 15 (0-100 μg/ml) for 24, 48, and 72 hrs. At the end of the incubation period, the cells were harvested and absorption was determined with an ELISA plate reader at 570 nm. Data points represent mean±SD in triplicate determinations repeated at least twice. IC50 values were determined by using SigmaPlot (Systat Software Inc, San Jose, Calif.).

MDA-MB-231 cells = test: Cell proliferation assay (tetrazolium salt/MTT method), MDA-MB-231; assay type: cell-based; conditions: Homo sapiens, read-out: IC50, inhibition of cell proliferation
Protocol: as §1, §2

[2] = test system: classical pathway (CP) of the complement system; conditions: read-out: IC(50), anticomplement activity; cited from earlier work
HIV-1 = conditions: MT-4 cells; cited from earlier work
human colon cancer cells = conditions: in vitro; cited from earlier work
[3] = test system: xenograft model of colon cancer; conditions: cited from earlier work
mammalian cells = conditions: potentially through inhibition of lanosterol 14α demethylase; cited from earlier work
[4] = MDA-MB-231 cells, 72 h, 0-100 μM

Molecule: ganodermanodiol
- inhibitory activity against recombinant HIV-1 protease [1]: significant inhibitory activity

Molecule: C[C@H](CC[C@H](O)[C@](C)(O)CO)[C@H]1CC[C@@]2(C)C3=CCC4C(C)(C)C(=O)CC[C@]4(C)C3=CC[C@]12C (stereo partly drawn) [compound 1, (10S,13R,14R,17R)-4,4,10,13,14-Pentamethyl-17-((2R,5S,6R)-5,6,7-trihydroxy-6-methylheptan-2-yl)-4,5,6,10,12,13,14,15,16,17-decahydro-1H-cyclopenta[a]phenanthren-3(2H)-one]
- IC50 (MCF-7 cells; MCF7, 72 h): 5.8 µM
- IC50 (MDA-MB-231 cells; MDA-MB-231, 72 h): 9.7 µM
- IC50 [2]: 17.2 µM
- inhibition of HIV-1-induced cytopathic effect (HIV-1): inhibited
- inhibitory activity against recombinant HIV-1 protease [1]: significant inhibitory activity
- proliferation of human colon cancer cells (human colon cancer cells): suppressed proliferation
- tumor growth [3]: inhibited tumor growth

Molecule: C[C@H](CCC=C(CO)CO)[C@H]1CC[C@@]2(C)C3=CC[C@H]4C(C)(C)C(=O)CC[C@]4(C)C3=CC[C@]12C [ganoderiol F, reference compound]
- inhibition of HIV-1-induced cytopathic effect (HIV-1): inhibited

Molecule: C/C(=C\CC[C@@H](C)[C@H]1CC(=O)[C@@]2(C)C3=C(C(=O)C[C@]12C)[C@@]1(C)CC[C@H](O)C(C)(C)[C@@H]1C[C@@H]3O)C(=O)O [ganoderic acid β]
- inhibitory activity against recombinant HIV-1 protease [1]: significant inhibitory activity

Molecule: C/C(=C\CC[C@@H](C)[C@H]1CC[C@@]2(C)C3=CCC4C(C)(C)C(=O)CC[C@]4(C)C3=CC[C@]12C)CO (stereo partly drawn) [ganoderol A, (10S,13R,14R,17R)-17-((R,E)-7-Hydroxy-6-methylhept-5-en-2-yl)-4,4,10,13,14-pentamethyl-4,5,6,10,12,13,14,15,16,17-decahydro-1H-cyclopenta[a]phenanthren-3(2H)-one]
- melting point: 75 to 80 °C
- hypocholestemic activity (mammalian cells): significant hypocholestemic activity

Molecule: C[C@H](CC[C@@H](O)[C@](C)(O)CO)[C@H]1CC[C@@]2(C)C3=CCC4C(C)(C)C(=O)CC[C@]4(C)C3=CC[C@]12C (stereo partly drawn) [compound 15, (10S,13R,14R,17R)-4,4,10,13,14-Pentamethyl-17-((2R,5R,6R)-5,6,7-trihydroxy-6-methylheptan-2-yl)-4,5,6,10,12,13,14,15,16,17-decahydro-1H-cyclopenta[a]phenanthren-3(2H)-one]
- IC50 (MCF-7 cells; MCF7 cells, 72 h, 0-100 μM): 24.1 µM
- IC50 (MDA-MB-231 cells; [4]): 11.3 µM

Molecule: C[C@H](CC[C@H](O)[C@@](C)(O)CO)[C@H]1CC[C@@]2(C)C3=CCC4C(C)(C)C(=O)CC[C@]4(C)C3=CC[C@]12C (stereo partly drawn) [compound 14, (10S,13R,14R,17R)-4,4,10,13,14-Pentamethyl-17-((2R,5S,6S)-5,6,7-trihydroxy-6-methylheptan-2-yl)-4,5,6,10,12,13,14,15,16,17-decahydro-1H-cyclopenta[a]phenanthren-3(2H)-one]
- IC50 (MCF-7 cells; MCF7 cells, 72 h, 0-100 μM): 16.3 µM
- IC50 (MDA-MB-231 cells; [4]): 36.7 µM

Molecule: C[C@H](CC[C@@H](O)[C@@](C)(O)CO)[C@H]1CC[C@@]2(C)C3=CCC4C(C)(C)C(=O)CC[C@]4(C)C3=CC[C@]12C (stereo partly drawn) [compound 13, (10S,13R,14R,17R)-4,4,10,13,14-Pentamethyl-17-((2R,5R,6S)-5,6,7-trihydroxy-6-methylheptan-2-yl)-4,5,6,10,12,13,14,15,16,17-decahydro-1H-cyclopenta[a]phenanthren-3(2H)-one]
- IC50 (MCF-7 cells; MCF7 cells, 72 h, 0-100 μM): 24.1 µM
- IC50 (MDA-MB-231 cells; [4]): 33.8 µM
